As usually defined, the inhibition is the relative decrease from the control value, in per cent. A high value points to a strong effect.

This passage reports inhibition and IC50 results from patent US6410566B1, “Cyclic amine derivatives and their use as drugs” (Teijin Limited, priority 2000, dated 2002).

Test [1] deals with T1, binding of human MIP-1α to THP-1 cells (Homo sapiens, UniProt P32246).
T1 construct: endogenous in cells; host or cells: THP-1 (human monocytic leukemia cell line), whole cells
T1 sequence (P32246 1-355): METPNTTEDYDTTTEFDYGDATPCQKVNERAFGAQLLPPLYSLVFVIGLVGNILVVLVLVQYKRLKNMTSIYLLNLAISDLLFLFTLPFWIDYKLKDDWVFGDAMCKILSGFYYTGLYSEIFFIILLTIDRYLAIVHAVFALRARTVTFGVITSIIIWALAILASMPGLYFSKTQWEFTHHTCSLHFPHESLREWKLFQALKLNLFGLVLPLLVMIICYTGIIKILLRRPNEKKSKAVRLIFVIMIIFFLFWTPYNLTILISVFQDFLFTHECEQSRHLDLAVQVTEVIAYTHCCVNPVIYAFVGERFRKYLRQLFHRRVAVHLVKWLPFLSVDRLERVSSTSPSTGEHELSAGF
Put plainly: Inhibition of MIP-1α binding to THP-1 cells. Here is the method: Measurement of Inhibition of MIP-1α Binding to THP-1 Cells by Test Compounds
(§1) Human monocytic leukemia cell line THP-1 was suspended in assay buffer (RPMI-1640 (Gibco-BRL Co.) containing 0.1% BSA and 25 mM HEPES adjusted to pH 7.4) to give a cell suspension of a concentration of 1×10^7 cells/mL. The test compound was diluted in the assay buffer and used as the test compound solution. Iodinated human MIP-1α (DuPont NEN Co.) was diluted in assay buffer to 250 nCi/mL and used as the labeled ligand solution. In a 96 well filter plate (Millipore Co.), 25 μL of test compound solution, 25 μL of labeled ligand solution and 50 μL of cell suspension were aliquoted into each well in this order, stirred (total reaction volume 100 μL), and incubated for one hour at 18° C.
After the reaction, the reaction solution was filtered, and the filter was washed twice with 200 μL of cold PBS (200 μL of cold PBS was added and then filtered). The filter was air-dried and 25 μL of liquid scintillator was added into each well. The radioactivity retained by the cells on the filter were measured using TopCounit (Packard Instrument Co.).
To calculate the ability of test compounds to inhibit binding of human MIP-1α to THP-1 cells, non-specific binding determined by adding 100 ng of unlabeled human MIP-1α (Peprotech Co.) in place of the test compound was subtracted, while the counts with no test compound added was taken as 100%.
(§2) Inhibition (%)={1−(A−B)/(C−B)}×100
(A, counts with test compound added; B, counts with 100 ng of unlabeled human MIP-1α added; C, counts with [^125I]-labeled human MIP-1α added).

The target of test [2] is T2, binding of human MCP-1 to THP-1 cells (Homo sapiens, UniProt P41597).
T2 construct: endogenous in cells; host or cells: THP-1 (human monocytic leukemia cell line), whole cells
T2 sequence (P41597 1-360 isoform P41597-2): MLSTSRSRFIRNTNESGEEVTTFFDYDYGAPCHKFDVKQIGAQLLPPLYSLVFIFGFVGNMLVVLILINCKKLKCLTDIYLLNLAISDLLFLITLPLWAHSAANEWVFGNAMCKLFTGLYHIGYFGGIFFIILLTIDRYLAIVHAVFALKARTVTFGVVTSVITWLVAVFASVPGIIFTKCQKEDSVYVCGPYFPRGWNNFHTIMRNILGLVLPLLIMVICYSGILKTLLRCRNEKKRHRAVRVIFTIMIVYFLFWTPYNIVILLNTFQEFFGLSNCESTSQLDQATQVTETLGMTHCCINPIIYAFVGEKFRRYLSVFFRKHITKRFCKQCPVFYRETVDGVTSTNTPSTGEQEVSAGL
Put plainly: Inhibition of binding of [125I]-labeled baculovirus expressed human MCP-1 to THP-1 cells (Method 1). To be noted: for inhibition at 100 µM: Method 1, at 100 μM. From the text: Measurement of Inhibition of MCP-1 Binding to THP-1 Cells 1. Construction of recombinant baculovirus carrying the human MCP-1 gene Based on the previously published human MCP-1 gene sequence (for example T. Yoshirnura et al., FEBS Lett., 1989, 244, 487-493), two synthetic DNA primers ([NT] and [NT]) flanked by restriction enzyme sites were used to amplify a DNA fragment from cDNA derived from human endothelial cells (purchased from Kurabow Co.); the amplified fragment was cut with the restriction enzymes (PstI and XbaI), ligated into a transfer vector pVL1393 (Invitrogen Co.), and the resulting vector was co-transfected along with infectious baculovirus into Sf-9 insect cells and the supernatant was plaque assayed to yield human MCP-1 gene baculovirus recombinant. […] Using the method of K. Ishii et al. […] The culture supernatant was affinity purified using a heparin Sepharose column (Pharmacia Co.) and then further purified using reverse phase HPLC (Vydac C18 column) to prepare purified human MCP-1. […] 3-1. […] The test. compound was diluted in the assay buffer and used as the test compound solution. [^125I]-labeled human MCP-1 described above was diluted in assay buffer to 1 mCi/mL and used as the labeled ligand solution. In a 96 well filter plate (Millipore Co.), 25 μL of test compound solution, 25 μL of labeled ligand solution and 50 μL of cell suspension were aliquoted into each well in this order, stirred (total reaction volume 100 μL), and incubated for one hour at 18° C. After the reaction, the reaction solution was filtered, and the filter was washed twice with 200 μL of cold PBS (200 μL of cold PBS was added and then filtered). The filter was air-dried and 25 μL of liquid sciatillator was added into each well. The radioactivity retained by the cells on the filter were measured using TopCount (Packard Instrument Co.). To calculate the ability of test compound to inhibit binding of human MCP-1 to THP-1 cells, non-specific binding determined by adding 100 ng of unlabeled human MCP-1 in place of the test compound was subtracted, while the counts with no test compound added was taken as 100%. Inhibition (%)=(1-(A-B)/(C-B))×100 (A, counts with test compound added; B, counts with 100 ng of unlabeled human MCP-1 added; C, counts with [^125I]-labeled human MCP-1 added).

Test [3] addresses T2, binding of human MCP-1 to THP-1 cells. Put plainly: Inhibition of binding of [125I]-labeled baculovirus expressed human MCP-1 to THP-1 cells (Method 2). As to conditions: for inhibition at 1 µM: Method 2, at 1 μM.
Excerpt: 1. Construction of recombinant baculovirus carrying the human MCP-1 gene
Based on the previously published human MCP-1 gene sequence (for example T. Yoshirnura et al., FEBS Lett., 1989, 244, 487-493), two synthetic DNA primers (5′-[…]-3′ and 5′-[…]-3′) flanked by restriction enzyme sites were used to amplify a DNA fragment from cDNA derived from human endothelial cells (purchased from Kurabow Co.); the amplified fragment was cut with the restriction enzymes (PstI and XbaI), ligated into a transfer vector pVL1393 (Invitrogen Co.), and the resulting vector was co-transfected along with infectious baculovirus into Sf-9 insect cells and the supernatant was plaque assayed to yield human MCP-1 gene baculovirus recombinant.
2. Synthesis of [^125I]-labeled human MCP-1 expressed in baculovirus
Using the method of K. Ishii et al. (Biochem Biophys Research Communications, 1995, 206, 955-961), 5×10^6 Sf-6 insect cells was infected with 5×10^7 PFU (plaque forming units) of the above human MCP-1 recombinant baculovirus and cultured for 7 days in Ex-Cell 401 medium. The culture supernatant was affinity purified using a heparin Sepharose column (Pharmacia Co.) and then further purified using reverse phase HPLC (Vydac C18 column) to prepare purified human MCP-1. The purified human MCP-1 was protein labeled by Amersham Co. using the Bolton Hunter method to yield [^125I]-labeled baculovirus expressed human MCP-1 (specific activity 2000 Ci/mmol).
3-2. Measurement of inhibition of binding of [^125I]-labeled baculovirus expressed human MCP-1 to THP-1 cells (Method 2)
as §1, with “(50” for “(RPMI-1640 (Gibco-BRL Co.) containing 0.1% BSA and 25”, “HEPES,” for “HEPES adjusted to”, “7.4, 1.0 mM CaCl2, 5.0% mM MgCl2, 0.5% BSA)” for “7.4)”, “[^125I]-labeled” for “Iodinated”, “MCP-1 described above” for “MIP-1α (DuPont NEN Co.)”, “1 mCi/mL” for “250 nCi/mL”
After the reaction, the reaction solution was filtered, and the filter was washed twice with 200 μL of cold PBS (200 μL of cold PBS was added and then filtered). The filter was air-dried and 25 μL of liquid scintillator was added into each well. The radioactivity retained by the cells on the filter were measured using TopCount (Packard Instrument Co.).
To calculate the ability of test compound to inhibit binding of human MCP-1 to THP-1 cells, non-specific binding determined by adding 100 ng of unlabeled human MCP-1 in place of the test compound was subtracted, while the counts with no test compound added was taken as 100%.
as §2
(A, counts with test compound added; B, counts with 100 ng of unlabeled human MCP-1 added; C, counts with [^125I]-labeled human MCP-1 added).

The next test relates to THP-1 cells. Nature of the test: Inhibition of cell chemotaxis caused by MCP-1. It counts as cell-based. As to conditions: Homo sapiens, MCP-1 20 ng/mL, read-out: inhibition of cell migration IC50. The method, then:
Measurement of Inhibition of Cell Chemotaxis
In order to determine the inhibition of cell chemotaxis by the compounds of this invention, we measured cell chemotaxis caused by monocyte chemotactic factor MCP-1 using the human monocytic leukemia cell line THP-1 as the chemotactic cell according to the method of Fall et al. (J. Immunol. Methods, 190, 33,239-247). 2×10^6 cells/mL of THP-1 cells (suspended in RPMI-1640 (Flow Laboratories Co.)+10% FCS) was placed in the upper chamber (200 μL) of a 96 well micro-chemotaxis chamber (Neuroprobe; registered tradename), and human recombinant MCP-1 in a same solution (Peprotech Co.) at a final concentration of 20 ng/mL was placed in the lower chamber, with a polycarbonate filter (PVP-free, Neuroprobe; registered tradename) placed between the two chambers. These were incubated at 37° C. for 2 hr in 5% CO2.
The filter was removed, and the cells which had migrated to the underside of the filter was fixed, stained using Diff Quick (Kokusai Shiyaku Co.) and then quantitated using a plate reader (Molecular Device Co.) at a wavelength of 550 nm to determine the index of cell migration as a mean of 3 wells. In addition, test compounds were placed in the upper and lower chambers along with THP-1 and MCP-1, respectively, and the inhibition of cell migration (inhibition IC50 (μM)) was determined.

With `CN(CC1CCN(Cc2ccc(Cl)cc2)CC1)C(=O)CNC(=O)c1cccc(C(F)(F)F)c1` [Compound No. 520, 1-(4-chlorobenzyl)-4-[N-methyl-N-{N-(3-(trifluoromethyl)benzoyl)glycyl}aminomethyl]piperidine], the inhibition at 10 µM in test [1] is 50 to 80%; in test [2] (Method 1, at 10 μM), 50 to 80%.

`Nc1ccc(Br)cc1C(=O)NCC(=O)NCC1CCN(Cc2ccc(Cl)cc2)CC1` [Compound No. 1042, 4-{N-(2-amino-5-bromobenzoyl)glycyl}aminomethyl-1-(4-chlorobenzyl)piperidine] returned an inhibition at 2 µM in test [1] of 20 to 50%. Further, the inhibition at 10 µM was 50 to 80% in test [1] and above 80% in test [3] (Method 2, at 10 μM). For the same compound, in test [3], the inhibition at 1 µM was above 80%. Besides, the IC50 in the test on THP-1 cells was below 100 nM.

Compound `Nc1cc(Cl)ccc1CN1CCC(CNC(=O)CNC(=O)c2cc(C(F)(F)F)ccc2N)CC1` [Compound No. 1919, 4-[{N-(2-Amino-5-trifluoromethylbenzoyl)glycyl}aminomethyl]-1-(2-amino-4-chlorobenzyl)piperidine] showed an inhibition at 2 µM in test [1] of 20 to 50%. Besides, the inhibition at 1 µM in test [3] is above 80%. The IC50 in the test on THP-1 cells is below 100 nM.

The compound `O=C(CNC(=O)c1ccccc1)NC1CCN(Cc2ccc(Cl)cc2)C1` (centres unmarked) [compound 1, 3-(N-Benzoylglycyl)amino-1-(4-chlorobenzyl)pyrrolidine] had an inhibition at 10 µM in test [1] of 50 to 80%. Further, in test [2], the inhibition at 100 µM is 50 to 80%.

With `CC(C)[C@H](NC(=O)c1cccc(C#N)c1)C(=O)NCC1CCN(Cc2ccc(Cl)cc2)CC1` [Compound No. 619, 1-(4-Chlorobenzyl)-4-[{N-(3-cyanobenzoyl)valyl}aminomethyl]piperidine], in test [1], the inhibition at 10 µM was 50 to 80%.

Compound `O=C(NCC(=O)N(CC1CCN(Cc2ccc(Cl)cc2)CC1)CC(c1ccccc1)c1ccccc1)c1ccccc1` [Compound No. 524, 4-{N-(N-Benzoylglycyl)-N-(2,2-diphenylethyl)aminomethyl}-1-(4-chlorobenzyl)piperidine] had an inhibition at 10 µM in test [1] of 20 to 50%.

In test [1], `CC(C)c1ccc(S(=O)(=O)NCC(=O)NCC2CCN(Cc3ccc(Cl)cc3)CC2)cc1` [Compound No. 869, 1-(4-Chlorobenzyl)-4-[{N-(4-isopropylphenylsulfonyl)glycyl}aminomethyl]piperidine] showed an inhibition at 10 µM above 80%. In test [2], this compound came in with an inhibition at 100 µM of 20 to 50%.

With `O=C(CNC(=O)c1ccccc1)NCC1CCN(Cc2ccc(Cl)cc2)CC1` [Compound No. 458, 4-{(N-Benzoylglycyl)amino}methyl-1-(4-chlorobenzyl)piperidine], the inhibition at 10 µM in test [1] was 50 to 80%. Besides, the inhibition at 100 µM in test [2] was above 80%.

In test [1], `O=C(CNC(=O)c1cccc(C(F)(F)F)c1)NCC1CCN(Cc2ccc(Cl)cc2)CC1` [Compound No. 461, 1-(4-chlorobenzyl)-4-[{N-(3-(trifluoromethyl)benzoyl)glycyl}aminomethyl]piperidine] had an inhibition at 10 µM above 80%. The IC50 in the test with THP-1 cells is below 100 nM.
